Experimental data as given in ChEMBL document CHEMBL1201862, “PubChem BioAssay data set” (2004).
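Following 48 hours of exposure in 96-well plates, responses at five concentrations were used to interpolate endpoints linearly. GI50: concentration for 50% inhibition of growth.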 Active and inactive are the calls of the source. Rule as the data show it: active = GI50 up to about 1.1 µM and inactive = higher.

What was measured:
Experiment in all cases: DTP human tumour cell line panel, 48 h
MDA-N = test system: MDA-N
SN12C = test system: SN12C
CAKI-1 = test system: CAKI-1
K562 = test system: K562
IGROV-1 = test system: IGROV-1
SNB-19 = test system: SNB-19
ACHN = test system: ACHN
M14 = test system: M14
SNB-75 = test system: SNB-75
A498 = test system: A498
NCI-H522 = test system: NCI-H522
HT-29 = test system: HT-29
UACC-62 = test system: UACC-62
BT-549 = test system: BT-549
NCI-H226 = test system: NCI-H226
SF-268 = test system: SF-268
A549 = test system: A549
OVCAR-3 = test system: OVCAR-3
T47D = test system: T47D
SK-MEL-2 = test system: SK-MEL-2

Compound	GI50 (MDA-N)	GI50 (SN12C)	GI50 (CAKI-1)	GI50 (K562)	GI50 (IGROV-1)	GI50 (SNB-19)	GI50 (ACHN)	GI50 (M14)	GI50 (SNB-75)	GI50 (A498)	GI50 (NCI-H522)	GI50 (HT-29)	GI50 (UACC-62)	GI50 (BT-549)	GI50 (NCI-H226)	GI50 (SF-268)	GI50 (A549)	GI50 (OVCAR-3)	GI50 (T47D)	GI50 (SK-MEL-2)
NC(=O)c1ccc(/N=N/O)nc1	> 100 µM (inactive)	> 100 µM (inactive)	> 100 µM (inactive)	> 100 µM (inactive)	> 100 µM (inactive)	> 100 µM (inactive)	> 100 µM (inactive)	> 100 µM (inactive)	> 100 µM (inactive)	> 100 µM (inactive)	> 100 µM (inactive)	> 100 µM (inactive)	> 100 µM (inactive)	> 100 µM (inactive)	> 100 µM (inactive)	> 100 µM (inactive)	> 100 µM (inactive)	> 100 µM (inactive)	> 100 µM (inactive)	–
Cc1nc2c(=O)n(-c3ccccc3)c3ccccc3c2o1	> 100 µM (inactive)	> 100 µM (inactive)	> 100 µM (inactive)	> 100 µM (inactive)	> 100 µM (inactive)	> 100 µM (inactive)	> 100 µM (inactive)	> 100 µM (inactive)	> 100 µM (inactive)	> 100 µM (inactive)	–	> 100 µM (inactive)	> 100 µM (inactive)	> 100 µM (inactive)	> 100 µM (inactive)	> 100 µM (inactive)	> 100 µM (inactive)	> 100 µM (inactive)	> 100 µM (inactive)	> 100 µM (inactive)
Cc1cc(CCC(=O)NCCNc2c3ccccc3nc3ccccc23)cc(C)c1O[Si](C)(C)C(C)(C)C	0.399 µM (active)	15.5 µM (inactive)	–	0.276 µM (active)	1.76 µM (inactive)	1.85 µM (inactive)	1.66 µM (inactive)	1.66 µM (inactive)	–	0.525 µM (active)	1.73 µM (inactive)	0.446 µM (active)	14.5 µM (inactive)	1.72 µM (inactive)	17.1 µM (inactive)	–	0.638 µM (active)	1.96 µM (inactive)	0.351 µM (active)	1.91 µM (inactive)
COc1ccc(-c2oc3c(CC(=O)O)cccc3c(=O)c2OC)cc1	> 100 µM (inactive)	> 100 µM (inactive)	21.6 µM (inactive)	> 100 µM (inactive)	> 100 µM (inactive)	–	> 100 µM (inactive)	> 100 µM (inactive)	–	> 100 µM (inactive)	> 100 µM (inactive)	> 100 µM (inactive)	> 100 µM (inactive)	> 100 µM (inactive)	> 100 µM (inactive)	> 100 µM (inactive)	> 100 µM (inactive)	> 100 µM (inactive)	> 100 µM (inactive)	> 100 µM (inactive)
CC(=O)OC1COC(Nn2c(=O)[nH]c3ccccc3c2=O)C(OC(C)=O)C1OC(C)=O (stereo not given)	> 100 µM (inactive)	> 100 µM (inactive)	> 100 µM (inactive)	> 100 µM (inactive)	> 100 µM (inactive)	> 100 µM (inactive)	> 100 µM (inactive)	> 100 µM (inactive)	30.3 µM (inactive)	> 100 µM (inactive)	–	> 100 µM (inactive)	> 100 µM (inactive)	> 100 µM (inactive)	51.9 µM (inactive)	> 100 µM (inactive)	> 100 µM (inactive)	> 100 µM (inactive)	47.1 µM (inactive)	> 100 µM (inactive)
OCCSCc1cc(Cl)cc(Cl)c1O	> 100 µM (inactive)	> 100 µM (inactive)	> 100 µM (inactive)	> 100 µM (inactive)	> 100 µM (inactive)	> 100 µM (inactive)	> 100 µM (inactive)	> 100 µM (inactive)	–	> 100 µM (inactive)	> 100 µM (inactive)	> 100 µM (inactive)	> 100 µM (inactive)	> 100 µM (inactive)	61.7 µM (inactive)	> 100 µM (inactive)	> 100 µM (inactive)	> 100 µM (inactive)	> 100 µM (inactive)	–
